Where two headings read alike, the source gives them in different places.
How the values were obtained:
Wee1 (h) = Wee1 (h) (Homo sapiens, UniProt P30291); assay: Wee1 kinase (h) detection method, [γ-33P]-ATP filter assay; assay type: biochemical; conditions: C 10 μm compound
[1] = molecular target: T1, human Wee1 (amino acids M291 to K575) (Homo sapiens, UniProt P30291); assay: Wee1 dissociation constant (Kd), KINOMEscan KdELECT competitive binding test; conditions: 11-point 3-fold dilution
T1 construct: host or cells: E. coli BL21 infected with T7 phage
T1 sequence (P30291 291-575): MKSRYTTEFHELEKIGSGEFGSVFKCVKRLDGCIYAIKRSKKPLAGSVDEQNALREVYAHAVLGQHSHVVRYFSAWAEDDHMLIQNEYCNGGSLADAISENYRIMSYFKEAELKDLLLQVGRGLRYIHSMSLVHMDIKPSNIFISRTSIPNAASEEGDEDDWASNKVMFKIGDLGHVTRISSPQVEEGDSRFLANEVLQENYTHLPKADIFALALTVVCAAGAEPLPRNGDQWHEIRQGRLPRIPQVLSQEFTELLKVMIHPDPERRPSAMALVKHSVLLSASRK
Experimental: Determination of Wee1 Dissociation Constant (Kd)
The Wee1 dissociation constants (Kd) which measures the affinity of tested compound to Wee 1 have been determined in the KINOMEscan™ KdELECT Service at DiscoveRx. KINOMEscan™ assay is based on competitive binding test. The affinity index Kd for Wee1 is calculated by qPCR measurement of the compounds that compete with the immobilized ligand and bind to the enzyme activity center.
Wee1 kinase-tagged T7 phage strains were prepared in an E. coli BL21 strain. E. coli was grown to log-phase and infected with T7 phage and incubated with shaking at 32° C. until lysis. The lysates were centrifuged and filtered to remove cell debris. A partial length construct of human Wee1 (amino acids M291 to K575 based on reference sequence NP_003381.1) was expressed on the T7 phage coat. A short DNA sequence, embedded within the T7 phage genome, was used as amplicon for detection via qPCR. […]
Test compounds were prepared as 111× stocks in 100% DMSO. Kas were determined using an 11-point 3-fold compound dilution series with three DMSO control points. […] The kinase concentration in the eluates was measured by qPCR. qPCR reactions were assembled by adding 2.5 μL of kinase eluate to 7.5 μL of qPCR master mix containing 0.15 μM amplicon primers and 0.15 μM amplicon probe. […]
The constants (KdS) were calculated with a standard dose-response curve using the Hill equation: […]

LoVo cells = assay: MTT based cell viability assay on LoVo cells; conditions: Homo sapiens, LoVo, 72 h, 3 d, read-out: IC50, growth inhibition of LoVo cells
How it was run: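 Inhibition of LoVo proliferation was derived as IC50 from a sigmoidal dose-response fit of cell survival. Readout was MTT (0.5 mg/mL, 4 h) with absorbance at 552/630/690 nm, after 3-day treatment at 37 °C. Eight-point series from 10 μM to 0.01 μM, DMSO control, 1% DMSO final.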

NCI-H1299 cells = assay: MTT based cell viability assay on NCI-H1299 cells; conditions: Homo sapiens, read-out: IC50, growth inhibition of NCI-H1299 cells
How it was run: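 NCI-H1299 cells (1000/well, settled overnight) were exposed for 3 d at 37 °C, 5% CO2, to an eight-point series of 10 μM to 0.01 μM plus DMSO blank, as prepared in DMSO (final DMSO 1‰). MTT (0.5 mg/mL, 4 h) was read at 552/630/690 nm. IC50 came from sigmoidal dose-response fits of survival.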

Chain of Wee1 (h) (P30291 whole entry, the tested form may be a part): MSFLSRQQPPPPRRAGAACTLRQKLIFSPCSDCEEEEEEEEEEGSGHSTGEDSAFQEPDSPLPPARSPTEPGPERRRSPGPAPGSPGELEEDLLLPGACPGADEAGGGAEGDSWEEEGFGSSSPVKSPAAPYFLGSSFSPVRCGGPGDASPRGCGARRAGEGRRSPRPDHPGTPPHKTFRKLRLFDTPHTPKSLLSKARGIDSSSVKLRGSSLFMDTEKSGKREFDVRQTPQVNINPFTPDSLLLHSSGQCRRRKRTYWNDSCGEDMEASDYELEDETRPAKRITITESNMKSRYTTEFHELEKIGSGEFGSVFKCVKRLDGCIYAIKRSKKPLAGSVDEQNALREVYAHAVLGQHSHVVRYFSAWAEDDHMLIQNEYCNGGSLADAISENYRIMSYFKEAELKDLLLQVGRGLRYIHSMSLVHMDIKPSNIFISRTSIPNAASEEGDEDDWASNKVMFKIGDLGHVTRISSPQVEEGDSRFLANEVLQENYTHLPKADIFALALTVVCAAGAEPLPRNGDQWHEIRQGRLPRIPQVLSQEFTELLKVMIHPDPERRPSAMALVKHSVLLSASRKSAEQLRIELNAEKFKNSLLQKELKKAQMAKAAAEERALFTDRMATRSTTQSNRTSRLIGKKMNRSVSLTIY

Inh. (%) of Wee1 kinase enzyme activity (Wee1 (h)) [%]	Kd [1] [nM]	IC50 (LoVo cells) [nM]	IC50 (NCI-H1299 cells; NCI-H1299 cells) [nM]	IC50 (NCI-H1299 cells; NCI-H1299, NCI-H1299 cells) [nM]	Compound
96	250	3580	1590		CN1CCN(c2ccc(Nc3ncc4c(n3)N3CCN=C3N(c3ccccc3Cl)C4=O)cc2)CC1 [Example 1, 6-(2-chlorophenyl)-2-((4-(4-methylpiperazin-1-yl)phenyl)amino)-8,9-dihydroimidazo[1,2-a]pyrimido[5,4-e]pyrimidin-5(6H)-one]
95	34	425		782	CN1CCN(c2ccc(Nc3ncc4c(n3)N3CCN=C3N(c3c(F)cccc3Cl)C4=O)cc2)CC1 [Example 2, 6-(2-Chloro-6-fluorophenyl)-2-((4-(4-methylpiperazin-1-yl)phenyl)amino)-8,9-dihydroimidazo[1,2-a]pyrimido[5,4-e]pyrimidin-5(6H)-one]

Reference: patent US11345711B2, “8,9-dihydroimidazo[1,2-a]pyrimido[5,4-e]pyrimidin-5(6H)-ones” (IMPACT THERAPEUTICS (SHANGHAI), INC, priority 2016, dated 2022)
